Our source for the relative viability values is the supplement of paper PMC10307832.

Holding throughout (assay): relative viability (nuclei count vs DMSO), 5 days (fraction); higher = more cells survive
Compound in assay [1]: CN[C@@H]1C[C@H]2O[C@@](C)([C@@H]1OC)n1c3ccccc3c3c4c(c5c6ccccc6n2c5c31)C(=O)NC4 [Staurosporine] + Nc1ncn([C@H]2C[C@H](O)[C@@H](CO)O2)c(=O)n1 [Decitabine] (partner 2 µM)
In outline:
(§1)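 For relative viability, nuclei counts in treated wells were divided by those in vehicle wells. Lung cancer cell lines had been pin-tool dosed in 1536-well plates the day after seeding and cultured for 5 days, then fixed and stained in one step (final 0.05% Triton X-100, 1% formaldehyde, 1 ug/ml Hoechst) and imaged at 4×. Doses were one drug alone or a fixed anchor-drug dose plus five library-drug doses (not always all listed) in √10 steps, and values are duplicate-plate medians.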

Compound in assay [2]: CN[C@@H]1C[C@H]2O[C@@](C)([C@@H]1OC)n1c3ccccc3c3c4c(c5c6ccccc6n2c5c31)C(=O)NC4 [Staurosporine] + O=C(CCCCCCC(=O)Nc1ccccc1)NO [Vorinostat] (partner 1 µM)
In outline:
as §1

Compound in assay [3]: O=c1[nH]cc(F)c(=O)[nH]1 [5-Fluorouracil] + CC(C)C[C@H](NC(=O)[C@H](Cc1ccccc1)NC(=O)c1cnccn1)B(O)O [Bortezomib] (partner 0.002 µM)
In outline:
as §1

Compound in assay [4]: CC1=C(CC(=O)O)c2cc(F)ccc2/C1=C\c1ccc([S+](C)[O-])cc1 [Sulindac] + CCNC(=O)c1noc(-c2cc(C(C)C)c(O)cc2O)c1-c1ccc(CN2CCOCC2)cc1 [Luminespib] (partner 0.01 µM)
In outline:
as §1

Take NCI-H1648: the relative viability in assay [1] (first compound 0.005 µM) turned out to be 0.43; in assay [1] (first compound 0.01581 µM), 0.223; in assay [1] (first compound 0.05 µM), 0.28; in assay [1] (first compound 0.1581 µM), 0.313; in assay [1] (first compound 0.5 µM), 0.287; in assay [2] (first compound 0.005 µM), 0.517. For the same cell line, the relative viability in assay [2] (first compound 0.01581 µM) stood at 0.167; in assay [2] (first compound 0.05 µM) it was 0.269; in assay [2] (first compound 0.1581 µM), 0.246; in assay [2] (first compound 0.5 µM), 0.271.

Consider NCI-H1703, for which the relative viability stood at 0.326 in assay [3] (first compound 0.02 µM), 0.36 in assay [3] (first compound 0.2 µM), 0.314 in assay [3] (first compound 0.6325 µM) and 0.365 in assay [3] (first compound 2 µM).

As to NCI-H1792, the relative viability worked out at 0.409 in assay [4] (first compound 0.08 µM); 0.475 in assay [4] (first compound 0.253 µM); 0.384 in assay [4] (first compound 2.53 µM); 0.627 in assay [4] (first compound 8 µM); 1.03 in assay [3] (first compound 0.02 µM); 0.84 in assay [3] (first compound 0.2 µM). Besides, the relative viability in assay [3] (first compound 0.6325 µM) worked out at 0.272; in assay [3] (first compound 2 µM), 0.185; in assay [1] (first compound 0.005 µM), 0.432; in assay [1] (first compound 0.01581 µM) it was 0.298; in assay [1] (first compound 0.05 µM), 0.224; in assay [1] (first compound 0.1581 µM), 0.133. Besides, the relative viability in assay [1] (first compound 0.5 µM) was 0.065.

For NCI-H1793, the relative viability was found to be 0.188 in assay [4] (first compound 0.08 µM); 0.168 in assay [4] (first compound 0.253 µM); 0.163 in assay [4] (first compound 0.8 µM); 0.169 in assay [4] (first compound 2.53 µM); 0.265 in assay [4] (first compound 8 µM); 0.341 in assay [1] (first compound 0.005 µM). The relative viability in assay [1] (first compound 0.05 µM) came to 0.311; in assay [1] (first compound 0.1581 µM), 0.125; in assay [1] (first compound 0.5 µM), 0.191; in assay [2] (first compound 0.005 µM), 0.635; in assay [2] (first compound 0.05 µM), 0.164; in assay [2] (first compound 0.1581 µM), 0.11. For the same cell line, the relative viability in assay [2] (first compound 0.5 µM) was found to be 0.0792.

With NCI-H1944, the relative viability in assay [4] (first compound 0.08 µM) is 0.753; in assay [4] (first compound 0.253 µM), 0.838; in assay [4] (first compound 0.8 µM) it was 0.706; in assay [4] (first compound 2.53 µM), 0.864; in assay [4] (first compound 8 µM), 0.963; in assay [1] (first compound 0.005 µM), 0.41. The relative viability in assay [1] (first compound 0.01581 µM) stood at 0.354; in assay [1] (first compound 0.05 µM) it was 0.401; in assay [1] (first compound 0.1581 µM), 0.326; in assay [1] (first compound 0.5 µM), 0.278; in assay [2] (first compound 0.005 µM), 0.469; in assay [2] (first compound 0.01581 µM) it was 0.267. Also, the relative viability amounted to 0.282 in assay [2] (first compound 0.05 µM), 0.12 in assay [2] (first compound 0.1581 µM) and 0.118 in assay [2] (first compound 0.5 µM).

On to NCI-H2170, for which the relative viability stood at 0.782 in assay [4] (first compound 0.08 µM); 0.755 in assay [4] (first compound 0.253 µM); 0.941 in assay [4] (first compound 0.8 µM); 0.671 in assay [4] (first compound 2.53 µM); 0.627 in assay [4] (first compound 8 µM); 0.492 in assay [1] (first compound 0.005 µM). Further, the relative viability in assay [1] (first compound 0.05 µM) came to 0.431; in assay [1] (first compound 0.1581 µM) it was 0.354; in assay [1] (first compound 0.5 µM) it was 0.229; in assay [2] (first compound 0.005 µM), 0.875; in assay [2] (first compound 0.05 µM), 0.488; in assay [2] (first compound 0.1581 µM), 0.0663. The relative viability in assay [2] (first compound 0.5 µM) turned out to be 0.0848.

With NCI-H2228, the relative viability in assay [4] (first compound 0.08 µM) worked out at 0.115; in assay [4] (first compound 0.253 µM) it was 0.129; in assay [4] (first compound 0.8 µM) it was 0.131; in assay [4] (first compound 2.53 µM), 0.185; in assay [4] (first compound 8 µM), 0.163; in assay [3] (first compound 0.02 µM), 1.03. The relative viability in assay [3] (first compound 0.2 µM) worked out at 0.911; in assay [3] (first compound 0.6325 µM), 0.811; in assay [3] (first compound 2 µM) it was 0.442; in assay [2] (first compound 0.005 µM) it was 0.449; in assay [2] (first compound 0.01581 µM) it was 0.188; in assay [2] (first compound 0.05 µM), 0.126. The relative viability in assay [2] (first compound 0.1581 µM) worked out at 0.0779; in assay [2] (first compound 0.5 µM), 0.0804.

For NCI-H2342, the relative viability in assay [4] (first compound 0.08 µM) came to 0.636; in assay [4] (first compound 0.253 µM), 0.767; in assay [4] (first compound 0.8 µM) it was 0.7; in assay [4] (first compound 2.53 µM), 0.761; in assay [4] (first compound 8 µM), 0.821; in assay [1] (first compound 0.005 µM) it was 0.772. The relative viability in assay [1] (first compound 0.01581 µM) came to 0.687; in assay [1] (first compound 0.05 µM), 0.513; in assay [1] (first compound 0.1581 µM), 0.553; in assay [1] (first compound 0.5 µM), 0.372; in assay [2] (first compound 0.005 µM), 0.987; in assay [2] (first compound 0.01581 µM) it was 0.74. Further, the relative viability was determined as 0.444 in assay [2] (first compound 0.05 µM), 0.34 in assay [2] (first compound 0.1581 µM) and 0.3 in assay [2] (first compound 0.5 µM).

As to SK-MES-1, the relative viability in assay [4] (first compound 0.08 µM) is 0.875; in assay [4] (first compound 0.253 µM), 0.985; in assay [4] (first compound 0.8 µM) it was 0.78; in assay [4] (first compound 2.53 µM), 0.735; in assay [4] (first compound 8 µM), 0.935; in assay [1] (first compound 0.005 µM), 0.32. For the same cell line, the relative viability in assay [1] (first compound 0.01581 µM) turned out to be 0.239; in assay [1] (first compound 0.05 µM), 0.204; in assay [1] (first compound 0.1581 µM), 0.136; in assay [1] (first compound 0.5 µM), 0.121; in assay [2] (first compound 0.005 µM), 0.47; in assay [2] (first compound 0.01581 µM), 0.27. Moreover, the relative viability in assay [2] (first compound 0.05 µM) worked out at 0.18; in assay [2] (first compound 0.1581 µM) it was 0.154; in assay [2] (first compound 0.5 µM), 0.127.

For SW 900, the relative viability in assay [4] (first compound 0.253 µM) was 0.176; in assay [4] (first compound 2.53 µM) it was 0.156; in assay [4] (first compound 8 µM) it was 0.173; in assay [1] (first compound 0.005 µM), 0.531; in assay [1] (first compound 0.01581 µM) it was 0.39; in assay [1] (first compound 0.05 µM), 0.394. Further, the relative viability in assay [1] (first compound 0.1581 µM) was found to be 0.262; in assay [1] (first compound 0.5 µM) it was 0.25; in assay [2] (first compound 0.005 µM), 0.294; in assay [2] (first compound 0.01581 µM), 0.15; in assay [2] (first compound 0.05 µM) it was 0.171; in assay [2] (first compound 0.1581 µM), 0.146. The relative viability in assay [2] (first compound 0.5 µM) was found to be 0.0929.
